{"source": "paper PMC5577601", "about": "“The Neuroprotective Marine Compound Psammaplysene A Binds the RNA-Binding Protein HNRNPK” (Marine Drugs, 2017)", "biological_target": "T1, HNRNPK (Homo sapiens, UniProt P61978)", "T1 construct": "GST-HNRNPK", "assay": "surface plasmon resonance (Biacore […]), RNA-saturated GST-HNRNPK vs GST; a second estimate vs GST-HNRNPI gave Kd […]", "type": "binding", "data": [{"smiles": "CN(C)CCCOc1c(Br)cc(/C=C/C(=O)NCCCOc2c(Br)cc(CCN(C)C)cc2Br)cc1Br", "note": "[PA, Psammaplysene A]", "values": [{"measurement": "Kd", "result": 77.3, "unit": "µM"}]}]}
